Source: ChEMBL document CHEMBL1201862, “PubChem BioAssay data set” (2004)
Calls of active or inactive are those of the source.

How the values were obtained:
[1] = tested on: Streptococcus sp. 'group A'; assay: Streptococcus pyogenes SK(-)GAS viability under kanamycin – luminescence, BacTiterGlo, confirmation, counter-screen for streptokinase expression inhibitor project, dose response (AID 1900); type: functional, organism-based
Streptokinase A = target: T1, Streptokinase A (Streptococcus pyogenes serotype M1, UniProt P10520); assay: viability-normalized secreted streptokinase activity reduction – plasminogen activation absorbance, OD405, dose response (AID 1914); type: functional, Streptococcus pyogenes M1 GAS;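 further: secreted streptokinase activity via plasminogen activation per viability signal from cell pellet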
T1 sequence (P10520 whole entry): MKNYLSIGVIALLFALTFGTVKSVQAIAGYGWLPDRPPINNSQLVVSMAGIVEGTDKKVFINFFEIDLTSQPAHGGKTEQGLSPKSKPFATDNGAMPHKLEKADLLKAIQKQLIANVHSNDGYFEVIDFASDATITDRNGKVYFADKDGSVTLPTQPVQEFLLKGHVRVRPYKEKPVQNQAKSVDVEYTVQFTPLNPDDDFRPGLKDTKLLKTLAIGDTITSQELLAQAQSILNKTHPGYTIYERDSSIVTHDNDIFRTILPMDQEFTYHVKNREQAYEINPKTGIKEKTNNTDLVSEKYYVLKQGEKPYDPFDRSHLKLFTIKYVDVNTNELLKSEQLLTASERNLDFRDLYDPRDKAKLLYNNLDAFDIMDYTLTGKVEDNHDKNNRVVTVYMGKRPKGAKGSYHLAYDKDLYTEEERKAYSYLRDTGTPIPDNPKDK

[2] = microbe, parasite or virus in culture; type: functional; settings: Mycobacterium tuberculosis
Streptococcus = assay: GAS UMAA2166 growth inhibition – luminescence, BacTiterGlo, counter-screen for streptokinase expression inhibitor project, dose response (AID 1915); type: functional, organism-based;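 further: potency for reduction of bacterial viability or growth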
[3] = target: Voltage-dependent T-type calcium channel subunit alpha-1H (Homo sapiens, UniProt O95180); type: functional;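 further: channel activity triggered by adding a high calcium stimulation buffer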
[4] = Luminescence Cell-Based Dose Response to Identify Activators of 5'UTR Stem-Loop Driven Prion Protein mRNA Translation in H4-C Neuroglioblastoma Cells. [Related pubchem assays: 1829 (Project Summary), 1814 (Primary HTS)]; type: functional
[5] = Luminescence Cell-Based Dose Confirmation HTS to Identify Activators of 5'UTR Stem-Loop Driven Alpha-Synuclein mRNA Translation in H4 Neuroglioblastoma Cells. [Related pubchem assays: 1829 (Project Summary), 1814 (Primary HTS)]; type: functional
[6] = Luminescence Cell-Based Dose Response HTS to Identify Activators of Luciferase Translation or Activity in H4 […] Cells. [Related pubchem assays: 1829 (Project Summary), 1814 (Primary HTS)]; type: functional
H4 = assay: Luminescence Cell-Based Dose Response HTS to Identify Activators of 5'UTR Stem-Loop Driven Prion Protein mRNA Translation in H4 Neuroglioblastoma Cells. [Related pubchem assays: 1829 (Project Summary), 1814 (Primary HTS)]; type: functional; settings: Homo sapiens
[7] = Luminescence Cell-Based Dose Response to Identify Activators of Luciferase Translation or Activity in H4-C Neuroglioblastoma Cells. [Related pubchem assays: 1829 (Project Summary), 1814 (Primary HTS)]; type: functional
[8] = Luminescence Cell-Based Dose Confirmation to Identify Activators of 5'UTR Stem-Loop Driven Alpha-Synuclein mRNA Translation in H4 Neuroglioblastoma Cells. [Related pubchem assays: 1829 (Project Summary), 1814 (Primary HTS)]; type: functional
[9] = target: T2, Voltage-gated N-type calcium channel alpha-1B subunit/Amyloid beta A4 precursor protein-binding family A member 1 (Homo sapiens, UniProt Q00975+Q02410); type: protein assay
Large T antigen = Large T antigen (Simian virus 40, UniProt P03070); type: functional, Betapolyomavirus macacae;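 further: Confirmatory-stage PubChem screen for compounds that inhibit SV40 T antigen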
[10] = target: T2, Voltage-gated N-type calcium channel alpha-1B subunit/Amyloid beta A4 precursor protein-binding family A member 1; type: protein assay; remark: listed apart in the source
Beta-galactosidase = Beta-galactosidase (Escherichia coli, UniProt Q8VNN2); assay: detection-enzyme interference by beta-gal modulators – biochemical, E. coli enzyme, set 3, artefact control for CCR6 antagonist project, dose response (AID 504712); type: functional
[11] = target: DNA dC->dU-editing enzyme APOBEC-3G (Homo sapiens, UniProt Q9HC16); assay: Dose Response confirmation of small molecule APOBEC3G DNA Deaminase Inhibitors via a fluorescence-based single-stranded DNA deaminase assay. [Related pubchem assays (depositor defined):AID493012, AID493028]; type: functional
[12] = target: Heat shock protein HSP 90-alpha (Homo sapiens, UniProt P07900); type: functional, organism-based
Cytochrome P450 3A4 = Cytochrome P450 3A4 (Homo sapiens, UniProt P08684); settings: Potency;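 further: confirmatory qHTS run detecting inhibitors and substrates of CYP3A4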
[13] = target: E3 ubiquitin-protein ligase Mdm2 (Homo sapiens, UniProt Q00987); assay: MDM2-luc reporter signal enhancers, multi-concentration potency testing, MDM2 ubiquitin-protein ligase inhibitor program, whole-cell format, luminescence detection, 384-well microplate (AID 1394); type: functional;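 further: MDM2 E3 inhibitors raise luminescence so EC50 is for signal enhancement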
[14] = target: T3, Carboxy-terminal domain RNA polymerase II polypeptide A small phosphatase 1 (Homo sapiens, UniProt Q9GZU7); assay: CTDSP1 inhibitors, concentration-response, biochemical, absorbance readout, ultra-high-throughput screen actives (AID 540297); type: functional
T3 sequence (Q9GZU7 whole entry): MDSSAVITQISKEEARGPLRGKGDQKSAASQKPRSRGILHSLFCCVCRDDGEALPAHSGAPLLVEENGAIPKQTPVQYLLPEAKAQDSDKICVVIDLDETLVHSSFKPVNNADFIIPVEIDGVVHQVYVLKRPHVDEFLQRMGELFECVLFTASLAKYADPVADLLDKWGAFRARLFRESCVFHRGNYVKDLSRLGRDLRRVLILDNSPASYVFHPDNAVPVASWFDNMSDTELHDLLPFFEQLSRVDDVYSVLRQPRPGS

[15] = target: NAD-dependent protein deacylase sirtuin-5, mitochondrial (Homo sapiens, UniProt Q9NXA8); assay: sirtuin-5 deacylation blockers, concentration series – biochemical, fluorescence imaging, cherry-pick, set 5, dose response (AID 720591);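 further: desuccinylation of succinyl peptide AMC substrate read as fluorescence after trypsin release; potency of inhibitors that lower fluorescence and may act on trypsin instead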
[16] = Trypanosoma cruzi growth suppression in host cells – NIH3T3 host cells, beta-gal luminescence, confirmation (AID 2044); type: functional, cell-based;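 further: intracellular parasites grown in NIH/3T3 mouse fibroblasts as host cells; luminescent beta-galactosidase reporter signal from transgenic T. cruzi replicating inside host cells; inhibitors lower the luminescence signal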
[17] = NIH3T3 cell viability loss – ATP luminescence, mouse fibroblasts, counter-screen, dose response (AID 2010); type: functional, cell-based;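 further: cells exposed to compound for about 90 hours before reading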
Protein Wnt-3a = Protein Wnt-3a (Mus musculus, UniProt P27467); assay: antagonism of Wnt3a pathway luciferase reporter – Wnt-LIGHT cells, luminescence, selectivity assay for Gli-SUFU antagonist project, dose response (AID 651570); type: functional; settings: read-out: IC50_Mean;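 further: Wnt-LIGHT reporter cells stimulated with conditioned medium from Wnt3a-producing cells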
[18] = M. tuberculosis H37Rv growth inhibitors, H37Rv strain (AID 1626); type: functional
Paired box protein Pax-8 = Paired box protein Pax-8 (Homo sapiens, UniProt Q06710); assay: PAX8 transcriptional activity inhibition in RMG-I – RMG-I cells, luciferase, cherry-pick, dose response (AID 687027); type: functional, cell-based;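 further: luciferase reporter driven by Pax8 target thyroperoxidase promoter measured by SteadyGlo luminescence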
Chain of Paired box protein Pax-8 (Q06710 whole entry): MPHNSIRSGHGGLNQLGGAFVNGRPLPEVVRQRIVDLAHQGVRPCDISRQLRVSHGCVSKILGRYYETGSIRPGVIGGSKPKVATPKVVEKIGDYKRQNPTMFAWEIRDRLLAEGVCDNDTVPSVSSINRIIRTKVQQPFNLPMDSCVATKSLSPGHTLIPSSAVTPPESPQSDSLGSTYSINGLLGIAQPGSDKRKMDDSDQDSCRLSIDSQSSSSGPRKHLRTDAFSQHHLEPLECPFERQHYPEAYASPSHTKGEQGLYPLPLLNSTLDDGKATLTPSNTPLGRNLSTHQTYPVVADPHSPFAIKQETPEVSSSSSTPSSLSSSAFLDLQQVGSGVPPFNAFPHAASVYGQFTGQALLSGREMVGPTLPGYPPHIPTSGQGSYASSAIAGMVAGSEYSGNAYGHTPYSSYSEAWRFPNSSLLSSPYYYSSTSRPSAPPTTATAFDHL

T2 sequence (Q00975 whole entry): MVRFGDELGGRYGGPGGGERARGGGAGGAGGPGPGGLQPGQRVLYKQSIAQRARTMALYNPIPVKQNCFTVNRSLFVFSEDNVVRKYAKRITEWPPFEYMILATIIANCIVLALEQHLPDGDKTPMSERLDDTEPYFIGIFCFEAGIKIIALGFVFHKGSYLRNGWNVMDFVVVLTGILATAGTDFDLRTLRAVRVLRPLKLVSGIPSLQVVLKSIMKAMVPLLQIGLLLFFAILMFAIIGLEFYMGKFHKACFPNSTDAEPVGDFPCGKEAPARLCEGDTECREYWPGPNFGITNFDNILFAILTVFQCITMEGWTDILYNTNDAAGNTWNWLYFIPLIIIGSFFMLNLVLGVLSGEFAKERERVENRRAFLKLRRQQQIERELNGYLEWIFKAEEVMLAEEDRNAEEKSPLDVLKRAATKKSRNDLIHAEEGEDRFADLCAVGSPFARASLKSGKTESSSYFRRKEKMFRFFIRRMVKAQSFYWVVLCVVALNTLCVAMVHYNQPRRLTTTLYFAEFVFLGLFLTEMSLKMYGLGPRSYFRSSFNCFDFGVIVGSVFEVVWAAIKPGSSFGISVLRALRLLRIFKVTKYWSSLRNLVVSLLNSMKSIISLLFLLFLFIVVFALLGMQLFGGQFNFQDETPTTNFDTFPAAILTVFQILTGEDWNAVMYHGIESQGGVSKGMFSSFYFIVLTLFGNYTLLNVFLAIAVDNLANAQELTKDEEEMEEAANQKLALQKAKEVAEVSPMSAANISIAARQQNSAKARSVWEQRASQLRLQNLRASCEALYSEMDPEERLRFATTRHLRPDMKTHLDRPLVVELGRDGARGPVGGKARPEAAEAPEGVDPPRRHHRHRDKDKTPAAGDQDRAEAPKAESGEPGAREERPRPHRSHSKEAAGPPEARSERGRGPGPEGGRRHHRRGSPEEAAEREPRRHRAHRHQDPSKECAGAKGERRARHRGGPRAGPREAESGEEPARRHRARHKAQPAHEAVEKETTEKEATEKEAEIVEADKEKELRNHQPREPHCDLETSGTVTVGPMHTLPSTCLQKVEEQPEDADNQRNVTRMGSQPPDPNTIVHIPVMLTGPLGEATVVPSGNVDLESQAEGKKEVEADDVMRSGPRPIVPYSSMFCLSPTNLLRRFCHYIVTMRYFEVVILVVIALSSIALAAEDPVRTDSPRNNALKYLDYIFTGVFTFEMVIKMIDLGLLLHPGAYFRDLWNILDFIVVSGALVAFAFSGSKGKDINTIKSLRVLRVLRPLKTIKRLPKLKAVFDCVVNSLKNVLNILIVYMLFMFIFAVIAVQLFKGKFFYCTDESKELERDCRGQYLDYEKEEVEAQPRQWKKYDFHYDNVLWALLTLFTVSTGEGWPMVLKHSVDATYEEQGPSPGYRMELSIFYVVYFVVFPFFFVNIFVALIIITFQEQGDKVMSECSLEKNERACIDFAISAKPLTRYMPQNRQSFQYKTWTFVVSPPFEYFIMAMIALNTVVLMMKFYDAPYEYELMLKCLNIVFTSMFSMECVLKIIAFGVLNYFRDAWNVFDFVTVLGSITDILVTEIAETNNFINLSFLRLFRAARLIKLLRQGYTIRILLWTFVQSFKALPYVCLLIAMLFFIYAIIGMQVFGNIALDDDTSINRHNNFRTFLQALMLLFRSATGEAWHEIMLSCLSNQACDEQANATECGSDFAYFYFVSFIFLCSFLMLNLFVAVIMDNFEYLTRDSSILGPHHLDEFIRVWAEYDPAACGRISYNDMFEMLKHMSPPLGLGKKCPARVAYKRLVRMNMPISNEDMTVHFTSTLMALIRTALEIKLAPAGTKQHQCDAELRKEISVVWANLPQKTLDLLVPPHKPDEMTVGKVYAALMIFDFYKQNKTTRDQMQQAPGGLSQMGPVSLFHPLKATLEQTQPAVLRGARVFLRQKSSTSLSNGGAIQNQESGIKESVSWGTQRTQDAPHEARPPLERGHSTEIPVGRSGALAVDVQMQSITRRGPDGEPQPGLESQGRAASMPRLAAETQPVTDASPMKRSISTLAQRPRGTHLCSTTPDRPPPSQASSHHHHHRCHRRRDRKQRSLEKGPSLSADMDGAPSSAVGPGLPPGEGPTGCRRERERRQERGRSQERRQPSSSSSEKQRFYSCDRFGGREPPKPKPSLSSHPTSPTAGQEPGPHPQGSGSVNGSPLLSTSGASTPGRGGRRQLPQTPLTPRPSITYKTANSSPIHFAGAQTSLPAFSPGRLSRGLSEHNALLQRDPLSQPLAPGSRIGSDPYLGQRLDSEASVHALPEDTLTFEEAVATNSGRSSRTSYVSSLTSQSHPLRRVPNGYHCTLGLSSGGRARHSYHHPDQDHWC
T2 sequence (Q02410 whole entry): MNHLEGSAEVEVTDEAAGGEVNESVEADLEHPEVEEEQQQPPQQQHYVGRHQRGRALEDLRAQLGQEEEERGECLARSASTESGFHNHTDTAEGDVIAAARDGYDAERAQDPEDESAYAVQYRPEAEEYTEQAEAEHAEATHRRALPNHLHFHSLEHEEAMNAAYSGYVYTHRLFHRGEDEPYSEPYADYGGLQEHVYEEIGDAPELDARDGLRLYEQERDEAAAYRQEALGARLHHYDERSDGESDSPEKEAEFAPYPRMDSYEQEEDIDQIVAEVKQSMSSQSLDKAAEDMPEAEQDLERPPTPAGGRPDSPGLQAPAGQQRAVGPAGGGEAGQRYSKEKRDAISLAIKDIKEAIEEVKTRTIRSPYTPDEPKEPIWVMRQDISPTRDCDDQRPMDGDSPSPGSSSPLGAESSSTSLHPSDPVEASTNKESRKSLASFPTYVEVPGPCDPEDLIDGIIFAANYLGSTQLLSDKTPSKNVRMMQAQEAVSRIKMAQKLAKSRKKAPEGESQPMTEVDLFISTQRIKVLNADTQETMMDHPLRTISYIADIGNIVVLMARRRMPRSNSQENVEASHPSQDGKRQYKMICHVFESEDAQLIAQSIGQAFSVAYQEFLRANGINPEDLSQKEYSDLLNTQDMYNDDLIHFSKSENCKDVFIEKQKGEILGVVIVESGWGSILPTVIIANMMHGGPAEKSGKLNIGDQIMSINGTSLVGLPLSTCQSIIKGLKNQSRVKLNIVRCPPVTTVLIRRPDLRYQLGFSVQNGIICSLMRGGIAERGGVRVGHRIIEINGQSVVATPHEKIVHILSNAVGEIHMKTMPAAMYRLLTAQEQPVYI
Chain of E3 ubiquitin-protein ligase Mdm2 (Q00987 whole entry, the tested form may be a part): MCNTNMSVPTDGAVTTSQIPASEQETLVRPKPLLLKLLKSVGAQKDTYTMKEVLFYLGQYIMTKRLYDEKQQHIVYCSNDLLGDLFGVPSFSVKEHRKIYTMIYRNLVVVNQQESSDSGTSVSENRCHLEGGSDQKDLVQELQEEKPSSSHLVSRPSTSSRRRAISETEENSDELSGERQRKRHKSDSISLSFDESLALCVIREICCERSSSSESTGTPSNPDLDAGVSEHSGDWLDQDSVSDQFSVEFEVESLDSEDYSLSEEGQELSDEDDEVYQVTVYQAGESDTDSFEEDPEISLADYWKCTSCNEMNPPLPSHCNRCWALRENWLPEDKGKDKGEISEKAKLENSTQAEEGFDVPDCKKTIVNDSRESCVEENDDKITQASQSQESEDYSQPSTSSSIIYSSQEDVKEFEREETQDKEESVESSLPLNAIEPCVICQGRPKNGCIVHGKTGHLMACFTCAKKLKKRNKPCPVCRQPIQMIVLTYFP
Chain of NAD-dependent protein deacylase sirtuin-5, mitochondrial (Q9NXA8 whole entry): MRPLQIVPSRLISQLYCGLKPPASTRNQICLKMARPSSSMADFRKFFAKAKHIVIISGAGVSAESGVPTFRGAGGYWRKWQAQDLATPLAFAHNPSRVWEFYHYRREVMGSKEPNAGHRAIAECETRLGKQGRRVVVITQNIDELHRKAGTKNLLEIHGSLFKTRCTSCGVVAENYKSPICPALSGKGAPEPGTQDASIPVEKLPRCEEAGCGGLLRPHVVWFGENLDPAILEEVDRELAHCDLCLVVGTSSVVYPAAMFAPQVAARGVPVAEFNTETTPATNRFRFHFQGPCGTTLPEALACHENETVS
Chain of Cytochrome P450 3A4 (P08684 whole entry): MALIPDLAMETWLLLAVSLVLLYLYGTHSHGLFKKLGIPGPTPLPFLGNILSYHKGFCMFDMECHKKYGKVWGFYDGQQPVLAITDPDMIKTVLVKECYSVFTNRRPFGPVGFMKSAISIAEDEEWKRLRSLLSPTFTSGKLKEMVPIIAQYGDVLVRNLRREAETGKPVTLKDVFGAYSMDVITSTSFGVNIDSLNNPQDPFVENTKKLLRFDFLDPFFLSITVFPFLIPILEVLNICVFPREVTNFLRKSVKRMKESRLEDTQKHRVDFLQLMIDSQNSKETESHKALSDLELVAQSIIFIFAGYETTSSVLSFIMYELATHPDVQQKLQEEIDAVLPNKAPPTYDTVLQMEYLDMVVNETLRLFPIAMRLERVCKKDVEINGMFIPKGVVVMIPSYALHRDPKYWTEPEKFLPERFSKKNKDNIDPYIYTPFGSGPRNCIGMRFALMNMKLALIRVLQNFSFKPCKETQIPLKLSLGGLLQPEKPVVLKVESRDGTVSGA

Compound: O=C(OCc1ccccc1)c1cccc(-c2nnn(Cc3ccccc3)n2)c1
- EC50 [1]: > 150 µM (not active)
- EC50 (Streptokinase A): 26 µM (inconclusive)
- CC50 [2]: > 40 µM (active)
- EC50 (Streptococcus): > 150 µM (not active)
- EC50 [3]: 9.03 µM (active)

Compound: CCCOc1ccccc1Cn1c(=O)oc2ccc(C)cc21
- EC50 [3]: 10.6 µM (active)

Compound: O=C(c1cc(COc2ccc(F)cc2Cl)on1)N1CCSCC1
- EC50 [4]: > 12 µM (not active)
- EC50 [5]: 0.787 µM (active)
- EC50 [6]: 4 µM (active)
- EC50 (H4): 0.1 µM (active)
- EC50 [7]: > 12 µM (not active)
- EC50 [8]: 0.63 µM (active)

Compound: COc1cc(N2C(=O)C=CC2=O)c(OC)cc1Cl
- IC50 [9]: 11.6 µM (active)
- IC50 (Large T antigen): 54.6 µM (active)
- IC50 [10]: 1.97 µM (active)
- IC50 (Beta-galactosidase): > 66.6 µM (inactive)
- IC50 [11]: 44 µM (active)
- AC50 [12]: 2.72 µM (active)

Compound: COC(=O)CC1C(C)(C)C2(O)OC34CC2C(=O)[C@@]1(C)C3CC[C@]1(C)C4=CC(=O)OC1c1ccoc1 (stereo not given in full)
- AC50 (Cytochrome P450 3A4): 3.16 µM (inconclusive)

Compound: CC1(C)CC2=Nc3nc(SCCN4CCOCC4)nc(O)c3C(c3cccs3)C2=C(O)C1 (stereo not given)
- EC50 [13]: 47.7 µM (not active)

Compound: O=C(O)CSc1ncnc2c1sc1nc(-c3ccccc3)c3c(c12)CCC3
- IC50 [14]: 4.04 µM (active)
- AC50 [15]: > 30 µM (inactive)

Compound: CCOC(=O)c1c(NC(=O)Cn2cnc([N+](=O)[O-])n2)sc2c1CCC(C)C2 (stereo not given)
- EC50 [16]: < 0.1 µM (active)
- EC50 [17]: > 60 µM (not active)
- EC50 (cells): 0.221 µM (active)

Compound: CN(C)c1nc(-c2ccccc2)[n+](C)s1
- IC50 [9]: 3.76 µM (active)
- IC50 [10]: > 50 µM (inactive)

Compound: C(=C\c1ccccc1)/CN1CCN(Cc2ccc3c(c2)OCCO3)CC1
- EC50 [16]: < 0.1 µM (active)
- EC50 [17]: > 60 µM (not active)
- EC50 (cells): 0.053 µM (active)

Compound: CCOC(=O)N1CCN(C(=O)c2cc(COc3ccc4ncccc4c3)on2)CC1
- IC50 (Protein Wnt-3a): 0.555 µM (active)
- AC50 [15]: > 30 µM (inactive)

Compound: C=C1C2(C(=O)Nc3ccc(SC(F)F)cc3)CCC(C2)C1(C)C (stereo not given)
- IC50 [18]: > 100 µM (active)
- AC50 (Paired box protein Pax-8): 62.8 µM (active)

Compound: Cc1cc(C)nc(S/C=C/C(=O)c2ccc(F)cc2)n1
- EC50 [13]: 0.81 µM (active)
